Experimental data reported in patent publication US11439603B2, “Compositions for ameliorating, preventing or treating somnipathy including phloroglucinol as active ingredient and compositions for suppressing intolerance to or alleviating side effects of agonist at benzodiazepine binding site of GABA-A receptor including phloroglucinol as active ingredient” (KOREA FOOD RESEARCH INSTITUTE, priority 2017, dated 2022).

Tests used:
[1] = system: C57BL/6N mice; experiment: Sleep architecture analysis (EEG/EMG) after single administration; type: in vivo; conditions: for NREM sleep / REM sleep: EEG recorded for 2 h after oral administration
Protocol: C57BL/6N mice (28-30 g, 12-week old male) were received from Koatech Co. Ltd. (Pyeongtaek, Gyeonggi-do, Korea) and acclimated to the vivarium for a period of one week before testing was conducted. The animals were housed at a temperature of 23±1° C., a humidity of 55±5%, and a light intensity of 3000 Lux under a 12 h light-dark cycle (light on from 07:00 to 19:00). The animals had ad libitum access to food and water. All animals were maintained in accordance with the guidelines for the Institutional Animal Care and Use Committee of the Korea Food Research Institute (KFRI-IACUC).
C57BL/6N mice were acclimated for a period of one week and received electrode implantation for electroencephalogram (EEG) and electromyogram (EMG) recordings. Each mouse was anesthetized with pentobarbital (50 mg/kg, i.p.) and its head was fixed in a stereotaxic instrument. After the subcutaneous connective tissue of the head was incised, an EEG/EMG headmount (Pinnacle Technology Inc., Lawrence, Kans., USA) was implanted for EEG and EMG recordings, fixed with dental cement, and closed with sutures. The surgical site was sterilized and an antibiotic was administered for 3 days to prevent possible inflammation after surgery. The animal was allowed to recover for 7 days. For adaptation to the recording conditions, 0.5% CMC-saline solution used as a control was administered orally from 4 days before measurement. Thereafter, the recording instrument was connected to induce acclimation of the animal to this experimental procedure.
After oral administration of a sample, the animal was stabilized for 5 min. Then, EEG and EMG were recorded using PAL-8200 series (Pinnacle Technology Inc., Lawrence, Kans., USA) for 24 h from 17:00. The sampling rate for EEG and EMG recordings was set to 200 Hz (epoch time: 10 s). The filtering range was set to 0.1-25 Hz for EEG data recording and 10-100 Hz for EMG data recording.
Sleep architecture analysis was conducted according to the fast Fourier transform (FFT) algorithm using the SleepSign program (Ver. 3.0, Kissei Comtec Inc., Matsumoto, Nagono, Japan).
The results were divided into three stages: Wake, REMS (rapid eye movement sleep, theta band: 6-10 Hz) and NREMS (non-rapid eye movement sleep, delta band: 0.5-4 Hz). Sleep latency was defined as the time required for NREM sleep with 10 s epoch to occur consecutively at least 12 times (Blanco-Centurion et al., 2006). The values in the 0.5-4 Hz range were averaged and the delta power during NREM sleep was expressed in percent relative to the control.
All animal experimental data were expressed as mean±standard deviation.

[2] = administered alone at doses of 25 to 50 mg/kg; cited from earlier work
[3] = system: C57BL/6N mice; experiment: Sleep architecture (EEG) during long-term administration for 21 days and 2-day withdrawal; type: in vivo
Protocol: Experimental animals were prepared and their sleep architecture was analyzed in the same manner as in Experimental Example 1. As in the single administration in Experimental Example 1, the mice were allowed to recover for 7 days after surgery and acclimated for 4 days. Thereafter, baselines (BL) were measured on day 0 after acclimation and a sample was administered orally to each animal for 21 days. EEGs were recorded on days 1, 7, 14, and 21. EEGs were recorded and analyzed during the subsequent 2-day withdrawal. FIG. 8 is a flow diagram of an experiment for sleep architecture analysis during long-term administration.
EEGs were recorded for the mice on days 0, 1, 7, 14, and 21 during long-term administration of each sample for 3 weeks. The recorded EEGs were analyzed.

[4] = system: GABAA-benzodiazepine; conditions: compared with other phlorotannins and diazepams; cited from earlier work
[5] = system: GABAA-benzodiazepine receptor; experiment: Mechanism of action for sleep enhancement: flumazenil given 15 min before oral sample, EEG/EMG; type: in vivo, mice
Protocol: To investigate the mechanism of action for sleep enhancement, flumazenil, an antagonist of the GABAA-benzodiazepine receptor, was administered 15 min before oral administration of phloroglucinol and EEG and EMG were recorded by the same method as described in Experimental Example 1.
In this example, zolpidem was used as a positive control.

[6] = oral once daily for 3 weeks, phloroglucinol 100 mg/kg, zolpidem 5 mg/kg
[7] = oral once daily for 3 weeks, phloroglucinol 100 mg/kg, zolpidem 5 mg/kg, or both

CN1C(=O)CN=C(c2ccccc2)c2cc(Cl)ccc21 [diazepam]
delta activity in the range of 0.5-4 Hz ([1]; 5 mg/kg diazepam (data not shown)): significantly reduced

Oc1cc(O)cc(O)c1 [phloroglucinol]
sleep duration [2]: increasing sleep duration | sleep latency [2]: effective in reducing sleep latency | NREM sleep duration compared to baseline (BL) [3, 6]: increase | intolerance on long-term administration [3, 6]: no intolerance | sleep latency compared to baseline (BL) [3, 6]: significant reduction | persistence of NREM sleep-enhancing effect from day 1 to day 21 ([3]; phloroglucinol 100 mg/kg alone or with zolpidem 5 mg/kg, once daily): lasted similarly from day 1 to day 21 | IC50 [4]: much lower | binding affinity (Ki) [4]: much lower | NREM sleep [1]: increased NREM sleep in a concentration-dependent manner | REM sleep [1]: without affecting REM sleep | delta activity during NREM sleep ([1]; oral, up to 150 mg/kg alone): no significant change | time after administration for which NREM sleep was significantly increased ([1]; single administration 150 mg/kg): 2 h | sleep latency compared to negative control (vehicle) ([1]; single oral administration, all concentrations (50, 100 and 150 mg/kg)): significantly reduced | amount of NREM sleep ([5]; treated with flumazenil 15 min before oral administration): level similar to that of a negative control | NREM sleep ([5]; untreated with flumazenil): increased NREM sleep

Cc1ccc(-c2nc3ccc(C)cn3c2CC(=O)N(C)C)cc1 [zolpidem, N,N,6-trimethyl-2-p-tolylimidazo[1,2-a]pyridine-3-acetamide L-(+)-tartrate (2:1)]
time for which NREM sleep duration was significantly increased compared to baseline ([3]; day 1, zolpidem 5 mg/kg alone or with phloroglucinol 100 mg/kg): 3 h | time for which NREM sleep duration was significantly increased compared to baseline ([3]; day 21, zolpidem 5 mg/kg alone): 1 h | delta activity compared to baseline ([3]; days 1, 7, and 14 of long-term administration, zolpidem 5 mg/kg, p<0.01): significant reductions | NREM sleep duration compared to baseline (BL) [3, 6]: significant increase | intolerance on long-term administration [3, 6]: demonstrating intolerance | sleep latency compared to baseline (BL) [3, 6]: significant reduction | NREM sleep duration with increasing administration period (third week / day 21 versus first day) [3, 7]: significant difference | sleep latency with increasing administration period (third week / days 7, 14, 21 versus first day) [3, 7]: significant difference | residual sedation ([1]; 5 mg/kg): slight residual sedation | time after administration for which NREM sleep was significantly increased ([1]; 5 mg/kg): 3 h | time after administration for which vigilance was significantly reduced ([1]; 5 mg/kg): up to 9 h | NREM sleep at 14 h after administration (residual sedative effect) ([1]; 10 mg/kg alone): significantly increased | time after administration for which the sleep-enhancing effect lasted ([1]; 10 mg/kg alone): 4 h | increase of NREM sleep duration ([1]; 10 mg/kg, 2 h after oral administration, p<0.01): 74.6% | NREM sleep [1]: increased NREM sleep in a concentration-dependent manner | REM sleep [1]: without affecting REM sleep | delta activity in the range of 0.5-4 Hz during NREM sleep ([1]; oral 5 mg/kg, p<0.01): significantly reduce | delta activity in the range of 0.5-4 Hz during NREM sleep ([1]; oral 10 mg/kg, p<0.01): significantly reduce | reduction of sleep latency ([1]; single administration of zolpidem 10 mg/kg): ~44 min | sleep latency compared to negative control (vehicle) ([1]; single administration, 5 and 10 mg/kg): significantly reduced | sleep-enhancing effect with flumazenil ([5]; flumazenil administered before sample, positive control): completely blocked
